According to US10927115B2, “Substituted heterocycles for targeting Hsp90” (Duke University, priority 2012, dated 2021):

Tests used:
Hsp90 and GRP94 = experiment: Purinome captured on ATP Sepharose interrogated with compounds in parallel; eluted proteins identified by MS; type: binding, pig; settings: FIG. 3; SDS-PAGE silver staining, mass spectrometry
Source text: The purinome was captured from pig mammary gland extract as described (Hughes et al., Bioorg Med Chem. 2012, 20(10):3298-3305) on gamma phosphate linked ATP Sepharose. Following extensive washing with physiological buffers to remove non-specifically associated proteins, the resin was divided equally and interrogated with the indicated compounds in parallel as described (Hughes et al 2012). All eluted proteins were characterized by SDS-PAGE and silver staining, and then identified by mass spectrometry. […] Key: GRP94, glucose regulated protein 94; Hsp90, heat shock protein 90; LAPT, lapatinimb; Hsp90 STD, purified Hsp90; 17-AAG, derivatized form of geldanamycin, BLK, vehicle control consisting of buffer containing 10% DMSO used to solubilize all compounds included in the test.

Hsp90 [1] = experiment: Affinity resin capture of Hsp90 from pig mammary gland extract (SDS-PAGE silver stain, MS sequencing); type: binding; settings: 1 mM compound 5 pre-incubated in the tissue extract
Experimental: Several media were prepared as described in Example 7, using compounds 6, 7, 8 and 9. These resins were termed A, B, C and D respectively. To prepare the resin in each case, the appropriate compound was added at 1-10 μmol/gram of resin in minimal methanol.
The ability of each resin to selectively capture Hsp90 from pig mammary gland extract, a tissue shown to be high in ATP binding proteins including native forms of Hsp90, GRP94 and TRAP1, was evaluated. The resin was incubated in the protein solution then washed with a high salt buffer. The bound proteins were removed via an SDS boil procedure, separated by SDS-PAGE electrophoresis, located by silver staining and identified using mass spectrometry (MS) sequencing. […] In the case of resin E (Example 7), bound proteins were eluted with 25 mM sodium dithionite in phosphate-buffered saline.

BT474 cells = experiment: Competition of compound 10 signal by compound 5 in permeabilized cells (plate reader fluorescence); type: cell-based; settings: compound 5 0-10 μM; escin; 30 minutes; Ex488/Em522 nm; FIG. 9
Experimental: BT474 cells were incubated with varying doses of compound 5 (0 μM, 0.01 μM, […], 1 μM and 10 μM) in the presence of a fixed concentration of compound 10 ([…]) and a cell permeabilizing agent (escin) for 30 minutes. The cells were then washed to remove the free probe and cell extracts prepared from the homogenized cells. The amount of drug uptake was then measured by fluorescence (Ex488/Em522 nm) in a micro plate fluorescence reader.

MCF7 cells = experiment: Compound 10 fluorescence in MCF7 cells with anti-Hsp90 antibody or competing compound 5; type: cell-based; settings: FIG. 6C
Experimental: In FIG. 6B, the compound was added in the presence of an antibody to Hsp90. […] DAPI (blue) highlights the nucleus of the cell. In FIG. 6 the green staining from compound 10 fluorescence appears white, while blue from the DAPI-stained nuclei appears gray.

GRP94 = target: T1, GRP94 (Sus scrofa, UniProt Q29092); experiment: Elution of pig mammary gland proteins from gamma phosphate linked ATP Sepharose with increasing amounts of compound; type: binding; settings: FIG. 2
T1 construct: The ATP resin was charged with the pig mammary gland extract; from tissue; host or cells: pig mammary gland extract captured on gamma phosphate linked ATP Sepharose
Source text: (§1) The ATP resin was charged with the pig mammary gland extract and aliquots were distributed into individual wells.

Hsp90 [2] = experiment: as above; type: binding; settings: FIG. 2
Source text: as §1

T1 sequence (Q29092 22-804): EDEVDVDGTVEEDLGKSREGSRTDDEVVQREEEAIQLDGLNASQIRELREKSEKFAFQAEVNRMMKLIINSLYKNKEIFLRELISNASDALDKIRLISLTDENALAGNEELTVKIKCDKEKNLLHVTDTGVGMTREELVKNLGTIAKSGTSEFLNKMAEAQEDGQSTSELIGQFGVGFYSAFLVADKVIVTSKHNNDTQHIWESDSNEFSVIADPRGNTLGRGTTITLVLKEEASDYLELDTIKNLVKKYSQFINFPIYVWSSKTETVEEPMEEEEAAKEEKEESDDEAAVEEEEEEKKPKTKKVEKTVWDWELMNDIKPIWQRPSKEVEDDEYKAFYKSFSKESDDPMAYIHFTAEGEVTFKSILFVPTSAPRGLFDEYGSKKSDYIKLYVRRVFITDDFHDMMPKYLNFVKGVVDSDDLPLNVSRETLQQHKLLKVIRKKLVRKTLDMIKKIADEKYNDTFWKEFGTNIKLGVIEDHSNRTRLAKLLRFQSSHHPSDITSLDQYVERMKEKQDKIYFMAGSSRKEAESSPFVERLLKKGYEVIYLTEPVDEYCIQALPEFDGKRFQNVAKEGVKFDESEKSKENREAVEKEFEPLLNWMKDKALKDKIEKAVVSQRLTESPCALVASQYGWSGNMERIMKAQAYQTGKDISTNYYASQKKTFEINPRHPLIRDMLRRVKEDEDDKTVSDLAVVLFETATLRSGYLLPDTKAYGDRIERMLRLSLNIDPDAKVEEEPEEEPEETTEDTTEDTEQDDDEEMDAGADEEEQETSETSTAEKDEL

Compound	proteins recognized (eluted from ATP Sepharose) (Hsp90 and GRP94)	other results
2-((19-di(ferrocenemethylamino)-4,7,10,13,16-pentaoxanonadecyl)amino)-4-(3,6,6-trimethyl-4-oxo-4,5,6,7-tetrahydro-1H-indazol-1-yl)benzamide [Compound 27]	only recognize Hsp90	
17-alkylamino-17-desmethoxygeldanamycin [Compound 17-AAG, reference compound]	specificity for both Hsp90 and GRP94	
Cc1nn(-c2ccc(C(N)=O)c(N[C@H]3CC[C@H](O)CC3)c2)c2c1C(=O)CC(C)(C)C2 [Compound 5, 2-(((1r,4r)-4-Hydroxycyclohexyl)amino)-4-(3,6,6-trimethyl-4-oxo-4,5,6,7-tetrahydro-1H-indazol-1-yl)benzamide, reference compound]	specificity for both Hsp90 and GRP94	competition of protein binding to the resins (Hsp90 [1]): clean exclusion of Hsp90 but not other proteins; competition of the signal from compound 10 (BT474 cells): effectively competed; competition of compound 10 fluorescence signal (MCF7 cells): competes away the fluorescence signal
Cc1nn(-c2ccc(C(N)=O)c(NCCCOCCOCCOCCOCCOCCCN)c2)c2c1C(=O)CC(C)(C)C2 [Compound 8, 2-((19-Amino-4,7,10,13,16-pentaoxanonadecyl)amino)-4-(3,6,6-trimethyl-4-oxo-4,5,6,7-tetrahydro-1H-indazol-1-yl)benzamide]	only recognize Hsp90	elution of GRP94 from ATP resin (GRP94): essentially no elution
Cc1nn(-c2ccc(C(N)=O)c(NCCCOCCOCCOCCOCCOCCCNc3ccc([N+](=O)[O-])c4nonc34)c2)c2c1C(=O)CC(C)(C)C2 [Compound 11, 2-((19-((7-nitrobenzo[c][1,2,5]oxadiazol-4-yl)amino)-4,7,10,13,16-pentaoxanonadecyl)amino)-4-(3,6,6-trimethyl-4-oxo-4,5,6,7-tetrahydro-1H-indazol-1-yl)benzamide]	only recognize Hsp90	
Cc1nn(-c2ccc(C(N)=O)c(NCCCOCCOCCOCCOCCO)c2)c2c1C(=O)CC(C)(C)C2 [Compound 19, 2-((1-hydroxy-3,6,9,12-tetraoxapentadecan-15-yl)amino)-4-(3,6,6-trimethyl-4-oxo-4,5,6,7-tetrahydro-1H-indazol-1-yl)benzamide]	only recognize Hsp90	
Cc1nn(-c2ccc(C(N)=O)c(NCCCOCCOCCOCCOCCOCCCNc3cc(-n4nc(C)c5c4CC(C)(C)CC5=O)ccc3C(N)=O)c2)c2c1C(=O)CC(C)(C)C2 [Compound 20, 2,2′-(4,7,10,13,16-pentaoxanonadecane-1,19-diylbis(azanediyl))bis(4-(3,6,6-trimethyl-4-oxo-4,5,6,7-tetrahydro-1H-indazol-1-yl)benzamide)]	only recognize Hsp90	
Cc1nn(-c2ccc(C(N)=O)c(N[C@H]3CC[C@H](N)CC3)c2)c2c1C(=O)CC(C)(C)C2 [Compound 28, 2-(((1r,4r)-4-aminocyclohexyl)amino)-4-(3,6,6-trimethyl-4-oxo-4,5,6,7-tetrahydro-1H-indazol-1-yl)benzamide]	only recognize Hsp90	
Cc1nn(-c2ccc(C(N)=O)c(N[C@H]3CC[C@H]([N+](C)(C)C)CC3)c2)c2c1C(=O)CC(C)(C)C2 [Compound 29, (1r,4r)-4-((2-carbamoyl-5-(3,6,6-trimethyl-4-oxo-4,5,6,7-tetrahydro-1H-indazol-1-yl)phenyl)amino)-N,N,N-trimethylcyclohexanaminium]	only recognize Hsp90	
CC(C)NCCCn1c(Sc2cc3c(cc2I)OCO3)nc2c(N)ncnc21 [PU-H71]	specificity for both Hsp90 and GRP94	elution of GRP94 from ATP resin (GRP94): strong potency; elution of Hsp90 from ATP resin (Hsp90 [2]): strong potency
CC1(C)CC(=O)c2c(C(F)(F)F)nn(-c3ccc(C(N)=O)c(N[C@H]4CC[C@H](O)CC4)c3)c2C1 [SNX-2112]		elution of GRP94 from ATP resin (GRP94): weaker affinity
